Data as given in the NIST ThermoML archive (doi:10.1016/j.jct.2006.09.017).

Assays:
[1] = 101.33 kPa, Liquid
[2] = xn = mol fraction of the nth substance listed; settings: 101 kPa, Liquid

CN1CCN(C)C1=O [1,3-dimethyl-2-imidazolidinone]
[1]
Settings	mass density [kg/m3]
283.15 K	1064.86
298.15 K	1051.59
313.15 K	1038.38

CN1CCN(C)C1=O [1,3-dimethyl-2-imidazolidinone] + CCCCCCCCO
mass density [kg/m3], [2]
Settings	x1 = 0.09996	x1 = 0.2	x1 = 0.3002	x1 = 0.4001	x1 = 0.5	x1 = 0.599	x1 = 0.7002	x1 = 0.7996	x1 = 0.8999
283.15 K	848.3	865.7	884.37	904.35	925.89	948.94	974.48	1001.78	1031.95
298.15 K	837.74	854.88	873.28	893.01	914.29	937.08	962.3	989.29	1019.12
313.15 K	827.05	843.97	862.14	881.63	902.66	925.21	950.12	976.81	1006.31

CN1CCN(C)C1=O [1,3-dimethyl-2-imidazolidinone] + CCCCCCCO
mass density [kg/m3], [2]
Settings	x1 = 0.09996	x1 = 0.1999	x1 = 0.3001	x1 = 0.4	x1 = 0.5	x1 = 0.6001	x1 = 0.7	x1 = 0.8001	x1 = 0.8992
283.15 K	847.64	866.92	887.24	908.58	931.08	954.87	979.95	1006.61	1034.61
298.15 K	836.89	855.89	875.96	897.05	919.28	942.82	967.68	994.04	1021.77
313.15 K	826.03	844.8	864.62	885.45	907.49	930.78	955.41	981.47	1009.02

CN1CCN(C)C1=O [1,3-dimethyl-2-imidazolidinone] + CCCCCCO
mass density [kg/m3], [2]
Settings	x1 = 0.1	x1 = 0.2	x1 = 0.3	x1 = 0.4001	x1 = 0.5	x1 = 0.6001	x1 = 0.7002	x1 = 0.7998	x1 = 0.9001
283.15 K	847.11	868.74	890.96	913.77	937.21	961.32	986.12	1011.48	1037.74
298.15 K	836.15	857.49	879.43	901.99	925.23	949.12	973.62	998.72	1024.71
313.15 K	825.02	846.12	867.81	890.13	913.07	936.71	961.04	985.96	1011.88

CN1CCN(C)C1=O [1,3-dimethyl-2-imidazolidinone] + CCCCCO
mass density [kg/m3], [2]
Settings	x1 = 0.1	x1 = 0.2	x1 = 0.3	x1 = 0.4001	x1 = 0.5001	x1 = 0.6001	x1 = 0.7	x1 = 0.8002	x1 = 0.9
283.15 K	846.41	870.95	895.43	919.88	944.23	968.5	992.7	1016.92	1040.93
298.15 K	835.16	859.39	883.62	907.84	931.97	956.02	980.01	1004.03	1027.87
313.15 K	823.75	847.72	871.72	895.74	919.68	943.56	967.36	991.25	1014.87

CN1CCN(C)C1=O [1,3-dimethyl-2-imidazolidinone] + CCCCO
mass density [kg/m3], [2]
Settings	x1 = 0.09992	x1 = 0.2	x1 = 0.3	x1 = 0.4002	x1 = 0.5	x1 = 0.6	x1 = 0.7002	x1 = 0.7999	x1 = 0.9001
283.15 K	846.49	874.68	901.72	927.79	952.85	976.95	1000.25	1022.61	1044.18
298.15 K	834.78	862.67	889.49	915.33	940.22	964.19	987.34	1009.57	1031.03
313.15 K	822.87	850.54	877.11	902.78	927.48	951.32	974.35	996.45	1017.84

CN1CCN(C)C1=O [1,3-dimethyl-2-imidazolidinone] + CCCO
mass density [kg/m3], [2]
Settings	x1 = 0.09998	x1 = 0.2	x1 = 0.2999	x1 = 0.4001	x1 = 0.4998	x1 = 0.6001	x1 = 0.7	x1 = 0.7999	x1 = 0.9
283.15 K	847.83	880.77	910.83	938.4	963.7	987.2	1008.86	1028.91	1047.62
298.15 K	835.55	868.25	898.06	925.54	950.74	974.16	995.74	1015.73	1034.43
313.15 K	823.05	855.56	885.22	912.63	937.7	961.08	982.62	1002.67	1021.31

CN1CCN(C)C1=O [1,3-dimethyl-2-imidazolidinone] + CCO
mass density [kg/m3], [2]
Settings	x1 = 0.09998	x1 = 0.2	x1 = 0.3001	x1 = 0.3999	x1 = 0.4996	x1 = 0.6002	x1 = 0.6999	x1 = 0.8	x1 = 0.8994
283.15 K	846.13	886.41	920.6	949.96	975.63	998.13	1017.79	1035.31	1050.79
298.15 K	833.1	873.26	907.41	936.72	962.36	984.83	1004.56	1022.19	1037.59
313.15 K	819.85	859.85	893.96	923.29	948.92	971.48	991.29	1008.94	1024.41

CN1CCN(C)C1=O [1,3-dimethyl-2-imidazolidinone] + CO
mass density [kg/m3], [2]
Settings	x1 = 0.09987	x1 = 0.1999	x1 = 0.2999	x1 = 0.4	x1 = 0.4985	x1 = 0.6002	x1 = 0.7001	x1 = 0.8002	x1 = 0.9003
283.15 K	866.6	914.65	950.88	978.91	1000.83	1019.06	1033.62	1045.88	1056.16
298.15 K	852.53	900.56	936.99	965.04	987.09	1005.48	1020.04	1032.47	1042.89
313.15 K	838.25	886.37	922.85	951.05	973.2	991.72	1006.43	1019.04	1029.49

CCCCO [butan-1-ol]
[1]
Settings	mass density [kg/m3]
283.15 K	817.18
298.15 K	805.79
313.15 K	794.18

CCO [ethanol]
[1]
Settings	mass density [kg/m3]
283.15 K	797.88
298.15 K	785.13
313.15 K	772.05

CCCCCCCO [heptan-1-ol]
[1]
Settings	mass density [kg/m3]
283.15 K	829.27
298.15 K	818.78
313.15 K	808.11

CCCCCCO [hexan-1-ol]
[1]
Settings	mass density [kg/m3]
283.15 K	826.03
298.15 K	815.34
313.15 K	804.46

CO [methanol]
[1]
Settings	mass density [kg/m3]
283.15 K	800.62
298.15 K	786.56
313.15 K	772.32

CCCCCCCCO [octan-1-ol]
[1]
Settings	mass density [kg/m3]
283.15 K	832.06
298.15 K	821.72
313.15 K	811.21

CCCCCO [pentan-1-ol]
[1]
Settings	mass density [kg/m3]
283.15 K	821.81
298.15 K	810.88
313.15 K	799.71

CCCO [propan-1-ol]
[1]
Settings	mass density [kg/m3]
283.15 K	811.54
298.15 K	799.59
313.15 K	787.36
